Test results from patent publication US10287581B2, “Cell penetrating peptides for intracellular delivery of molecules” (AADIGEN, LLC, priority 2011, dated 2019).
pKd: −log10 of the molar value. Like-named read-outs stand apart in the source and are kept apart here.

Key:
[1] = target: SS-DNA: single-stranded DNA; experiment: Binding of single-stranded DNA to VEPEP-6 peptides by fluorescence spectroscopy
Method: (§1) FIG. 2: Binding of nucleic acid to VEPEP-6a as monitored by TRP-intrinsic fluorescence spectroscopy. Dissociation constants were calculated from data fitting. Nucleic acids used: double stranded DNA (45/35 mer), siRNA (19/19 or 25/25) and single stranded DNA (19 or 36 mer)
(§2) VEPEP-6 peptide form stable complexes with siRNA, single stranded and double stranded oligonucleotides. The binding of cargos to VEPEP-6 was monitored by fluorescence spectroscopy using the both intrinsic Trp group of VEPEP-6 (3 to 5 Trp-residues) and extrinsic fluorescently labeled cargoes (using Cy3, Cy5 or FITC). Fluorescence experiments were performed on a PTI spectrofluorimeter at 25° C. in a NaCl 154 mM buffer. Intrinsic Trp-fluorescence of VEPEP-6 was excited at 290 nm and emission spectrum was recorded between 310 and 400 nm, with a spectral band-pass of 2 and 8 nm for excitation and emission, respectively. FITC-fluorescence of labelled-siRNA or DNA was excited at 492 nm and emission recorded between 500 and 580 nm. For VEPEP-6/siRNA interaction, 0.5 μM of FITC-labelled siRNA was titrated by increasing concentrations of peptide. All measurements were corrected for the dilution and curve fitting were performed by using Grafit software (Erithacus). Curve fitting reveal that VEPEP-6 strongly binds the different cargoes with dissociation constant in the nanomolar range (Table 1 and FIG. 2).
(§3) Binding of nucleic acid to ST-VEPEP-6aa was monitored by fluorescence spectroscopy using both TRP-intrinsic and fluorescently labelled nucleic acids. Dissociation constants were calculated from data fitting. Nucleic acids used were double stranded siRNA (19/19 or 25/25) and single stranded DNA (36 mer).

siRNA = experiment: Binding of siRNA to VEPEP-6 peptides by fluorescence spectroscopy
Method: as §1, §2, §3

[2] = Binding of doxorubicin to VEPEP-6 by quenching of tryptophan fluorescence; conditions: cargo Doxorubicin
Method: (§4) FIG. 3: Binding of small hydrophobic molecules to VEPEP-6 as monitored by fluorescence spectroscopy. The binding of Doxorubicin, AZT and Porphyrin to VEPEP-6 was monitored by following the quenching of tryptophan-intrinsic VEPEP-6 fluorescence and that of fluoresceine-labelled-Guanosine (FAM-G) by monitoring FAM-fluorescence. Dissociation constants were calculated from data fitting.
(§5) VEPEP-6 peptides also form stable particles with small aromatic and/or hydrophobic molecules including daunomycin, Paclitaxel, doxorubicin, AZT, porphyrin, FAM-G or fluorescent dyes (FIG. 3). The dissociation constant for small hydrophobic molecule ranges between 0.03 to 4 μM, depending on the nature of the dyes and of the peptides.

[3] = Binding of porphyrin to VEPEP-6 by quenching of tryptophan fluorescence; conditions: cargo porphyrin
Method: as §4, §5

[4] = Binding of FAM-guanosine to VEPEP-6 by FAM fluorescence; conditions: cargo FAM-guanosine
Method: as §4
FIGS. 8A and 8B: (8A) Binding of small hydrophobic fluorescent molecules (SFM) to VEPEP-6 as monitored by fluorescence spectroscopy. In the present case, a fluorescently labeled nucleotide (fluorescein-labeled-Guanine) was used. Dissociation constants were calculated from data fitting. (8B) Effect of VEPEP-6 mediated doxorubicin on cancer cell viability. Dose responses of free (white bars) and VEPEP-6 mediated (grey bars) doxorubicin have been evaluated on the viability of U2OS and MCF7 cancer cells.
as §5

[5] = Binding of AZT to VEPEP-6 by quenching of tryptophan fluorescence; conditions: cargo AZT
Method: as §4, §5

[6] = tested on: DD-DNA: double-stranded DNA; experiment: Binding of double-stranded DNA to VEPEP-6 peptides by fluorescence spectroscopy; conditions: cargo DD-DNA
Method: as §1, §2

cyclin B1 = experiment: Cyclin B1 silencing at protein (Western blotting) and mRNA (Quantigen) level; type: cell-based, Human; conditions: 200 nM siRNA complexed with VEPEP-6 at a 1/20 ratio
Method: FIGS. 6A-6C: VEPEP-6 dose response of Cyclin B1 silencing at the protein and mRNA levels on Hela (6A) and HS68 (6B) cells. Stock solution of VEPEP-6/siRNA ([…]) particles were prepared at a molar ratio of 1/20 (siRNA/VEPEP-6), and lower concentrations (from 200 nM to 0.125 nM) were obtained by serial dilution of the stock solution in PBS. HeLa (Panel A) and HS-68 (Panel B) cells (60% confluency) were overlaid with preformed complexes for 30 min, then fresh DMEM supplemented with 10% FCS was added directly to the cells, which were then returned to the incubator for 24 hrs. Cyclin B1 protein levels were determined by Western Blotting using Cdk2 as a control for quantification (white bars). Cyclin B1 mRNA levels were measured 12 hrs after transfection using Quantigen technology (black bars). Mismatched Cyc-B3 siRNA associated with VEPEP-6 (200 nM) and empty VEPEP-6 particles (20 μM) were used as a control. 6C: Dose-response of G2-arrest associated with Cyclin B1 silencing. HeLa (black bars) and HS68 (white bars) cells were treated with increasing concentrations of VEPEP-6/siRNA-Cyc-B1 from 0.25 nM to 20 nM. The cell cycle status was evaluated by FACS analysis. […]
Cyclin B1 mRNA and protein levels were determined 12 and 24 hrs following transduction, using Quantigen (Panomics Inc.) and Western blotting, respectively. […]

[7] = cargo siRNA, 25° C., NaCl 154 mM buffer, read-out: Kd

| pKd ([1]; single stranded nucleic acid (DNA 36 mer), read-out: dissociation constant) | pKd (siRNA; double stranded nucleic acid (siRNA 19/19 or 25/25), read-out: dissociation constant) | Binding [2] | pKd [2] | Binding [3] | pKd [3] | Binding [4] | Binding [5] | Binding [6] | pKd [6] | Binding ([1]; cargo SS-DNA) | pKd ([1]; cargo SS-DNA, read-out: Kd) | Binding (siRNA; cargo siRNA) | pKd (siRNA; [7]) | pKd [4] | pKd [5] | Substance | effect on cyclin B1 levels and cell cycle progression (cyclin B1) |
| --- | --- | --- | --- | --- | --- | --- | --- | --- | --- | --- | --- | --- | --- | --- | --- | --- | --- |
| 8.40 | 8.15 |  |  |  |  |  |  |  |  |  |  |  |  |  |  | Ac-X1LFLARWRsLLRSsLWRLLWK-cysteamide [ST-VEPEP-6aa] |  |
|  |  | yes | 6.00 | yes | 5.40 | no | no | yes | 6.70 | yes | 7.00 to 7.30 | yes | 7.70 to 8.00 |  |  | Ac-[βA/S]LFRALWRLLR[S/T]LWRLLW[K/R]-cysteamide [VEPEP-6a] |  |
|  |  | yes | 6.15 | yes | 5.30 | no | no | yes | 6.70 | yes | 7.00 to 7.30 | yes | 7.70 to 8.00 |  |  | Ac-[βA/S]LWRALWRLWR[S/T]LWRLLW[K/R]A-cysteamide [VEPEP-6b] |  |
|  |  | yes | 6.30 | yes | 6.30 | yes | yes | yes | 6.70 | yes | 7.00 to 7.30 | yes | 7.70 to 8.00 | 6.10 | 7.00 | Ac-[βA/S]LWRALWRLWR[S/T]LWRLWR[K/R]A-cysteamide [VEPEP-6d] |  |
|  |  | yes | 6.70 | yes | 6.70 | yes | yes | yes | 6.70 | yes | 7.00 to 7.30 | yes | 7.70 to 8.00 | 5.55 | 5.62 | Ac-[βA/S]LWRALWRL[L/C/I]RNLWRLLW[K/R]A-cysteamide [VEPEP-6f] |  |
|  |  | yes | 7.52 | yes | 5.92 | yes | yes | yes | 6.70 | yes | 7.00 to 7.30 | yes | 7.70 to 8.00 | 5.40 | 6.52 | Ac-[βA/S]LWRALWRL[L/C/I]R[S/T]LWRLWR[K/R]A-cysteamide [VEPEP-6c] |  |
|  |  | yes | 6.30 | yes | 6.70 | yes | yes | yes | 6.70 | yes | 7.00 to 7.30 | yes | 7.70 to 8.00 | 5.64 | 6.05 | Ac-[βA/S]LWRALWRL[L/I]RALWRLLW[K/R]A-cysteamide [VEPEP-6e] |  |
|  |  |  |  |  |  |  |  |  |  |  |  |  |  |  |  | si-GAPDH: unrelated siRNA targeting GAPDH, SEQ ID No: 21/22 (chain 1 CAUCAUCCCUGCCUCUACUTT; chain 2 AGUAGAGGCAGGGAUGAUG; chemistry not given here) | no effect |
